Results taken from patent US20240300949A1, “NOVEL CRYSTALLINE FORM OF 1-(8-BROMOPYRIDO[2,3-E][1,2,4]TRIAZOLO[4,3-A]PYRAZIN-4-YL)-N-METHYLAZETIDIN-3-AMINE HEMISUCCINATE” (JW PHARMACEUTICAL CORPORATION, priority 2021, published 2024).

Assays:
[1] = solid-state stability on drying in vacuum oven at 60° C. (XRPD, FIG. 8); format: physicochemical
Source text: Form F is a channel hydrate and generally channel hydrates/solvates are not very stable since the solvent molecules easily can move in and out of the channels and causes collapse of the crystal lattice. In the case of form F the water molecules are placed in the same molecular plane as the succinate molecules which stabilize the hydrate and makes form F particularly useful for use in a solid pharmaceutical product, such as in a tablet. Furthermore, form F can be dried under moderate drying conditions such as in a vacuum oven at 60° C. […] Also form F has been found suitable for large scale drying.
FIG. 8: XRPD's of Form F stored in vacuum at 60° for different periods of time. At each time point of a quick XRPD (9 min) and a normal XRPD (1 hour) were recorded
XRPD patterns were collected with a PANalytical X'pert Empyrean diffractometer using an incident Cu Kα radiation and operating at 45 kV and 40 mA. The XRPD patterns were collected in the 2 theta range from 3 to 60 degrees with a step size of 0.013°, counting time of 198.645s and in transmission geometry. 25 repetitions were done and summarized. In the incident beam path, an parabolic shaped beam Cu W/Si (hybrid MPD) monochromator together with a 10 mm fixed mask, fixed anti-scatter slit ⅛° and fixed divergence slits of 1/16° were placed to line focus the Cu Kα X-rays through the sample and onto the detector. […]

[2] = solid-state stability on micronization; format: physicochemical
histamine 4 receptor = histamine 4 receptor (Homo sapiens, UniProt Q9H3N8); conditions: background statement, refers to U.S. Pat. No. 9,586,959; cited from earlier work
Chain of histamine 4 receptor (Q9H3N8 whole entry): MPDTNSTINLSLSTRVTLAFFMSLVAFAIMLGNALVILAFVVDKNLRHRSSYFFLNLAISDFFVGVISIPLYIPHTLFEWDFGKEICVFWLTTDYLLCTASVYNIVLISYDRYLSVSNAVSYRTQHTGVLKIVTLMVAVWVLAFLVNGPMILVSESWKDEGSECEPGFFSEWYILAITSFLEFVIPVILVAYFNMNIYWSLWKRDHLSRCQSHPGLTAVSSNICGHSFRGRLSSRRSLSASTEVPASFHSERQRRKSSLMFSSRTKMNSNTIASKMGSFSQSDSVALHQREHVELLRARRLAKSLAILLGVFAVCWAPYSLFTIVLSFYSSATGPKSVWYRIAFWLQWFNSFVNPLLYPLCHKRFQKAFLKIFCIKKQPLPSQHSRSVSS

[3] = system: inflammatory cells such as mast cells and eosinophils; conditions: background statement, refers to U.S. Pat. No. 9,586,959; cited from earlier work

Molecule	crystal lattice stability on drying [1]	stability of crystalline form on micronization [2]	histamine 4 receptor inhibitory effect (histamine 4 receptor)	effect against histamine induced infiltration of inflammatory cells such as mast cells and eosinophils [3]
1-(8-bromopyrido[2,3-e][1,2,4]triazolo[4,3-a]pyrazin-4-yl)-N-methylazetidin-3-amine hemisuccinate monohydrate [form F]	without collapsing the crystal lattice	tolerates micronization without undergoing amorphization		
CNC1CN(c2nc3ncc(Br)cc3n3cnnc23)C1 [1-(8-bromopyrido[2,3-e][1,2,4]triazolo[4,3-a]pyrazin-4-yl)-N-methylazetidin-3-amine]			strong	suppressive effects
